Experimental data taken from patent publication US8338426B2, “Piperazinyl derivatives useful as modulators of the neuropeptide Y2 receptor” (Janssen Pharmaceutica NV, priority 2007, dated 2012).
Where a chain is given by its changes, count along the chain named.

Experiments:
MTP = MTP (Homo sapiens, UniProt P55157); test: MTP assay (triglyceride transfer between vesicles); type: biochemical; conditions: read-out: MTP pIC50 (converted)
Experimental: MTP activity was measured using an assay similar to one described by J. R. Wetterau and D. B. Zilversmit in Chemistry and Physics of Lipids (1985) 38, 205-222.
In order to prepare the donor and acceptor vesicles, the appropriate lipids in chloroform were put into a glass test tube and dried under a stream of nitrogen. A buffer containing 15 mM Tris-HCl (pH 7.5), 1 mM ethylenediamine tetra-acetic acid, 40 mM NaCl, 0.02% NaN3 (assay buffer) was added to the dried lipid. The mixture was vortexed briefly and the lipids were then allowed to hydrate for 20 minutes on ice. Vesicles were then prepared by bath sonication (using a Branson 2200 device) at room temperature for at most 15 minutes. Butylated hydroxytoluene was included in all vesicle preparations at a concentration of 0.1%. The lipid transfer assay mixture contained donor vesicles (40 nmole phosphatidylcholine, 7.5 mole % cardiolipin and 0.25 mole % glycerol tri[1-^14C]-oleate), acceptor vesicles (240 nmol phosphatidylcholine) and 5 mg bovine serum albumin in a total volume of 675 μl in a 1.5 ml microcentrifuge tube. Test compound was added dissolved in dimethylsulfoxide (0.13% final concentration). After 5 minutes of pre-incubation at 37° C., the reaction was started by the addition of MTP in 100 μl of a dialysis buffer. The reaction was stopped by the addition of 400 μl […] (DEAE)-52 cellulose (Sephadex) pre-equilibrated in 15 mM Tris-HCl (pH 7.5), 1 mM ethylenediamine tetra-acetic acid and 0.02% NaN3 (1:1 volume/volume). The mixture was agitated for 4 minutes and centrifuged for 2 minutes at maximum speed in an Eppendorf centrifuge (4° C.) to pellet the DEAE-52-bound donor vesicles. An aliquot of the supernatant containing the acceptor liposomes was counted and the [^14C]-counts were used to calculate the percent triglyceride transfer from donor to acceptor vesicles.
Representative compounds of the present invention were measured for binding against the MTP receptor, as described above, with results as listed in Table 2 below.

human Y2 receptor = target: T1, human Y2 receptor (Homo sapiens, UniProt P49146); test: Neuropeptide Y2 radioligand binding assay, [125I]PYY, KAN-Ts cells; conditions: KANT-S cells, mean ± S.E.M., read-out: hY2 pKi (converted)
T1 construct: KAN-Ts endogenously expressing Y2 receptors were used; endogenous in cells; host or cells: KAN-Ts cells
T1 sequence (P49146 1-381): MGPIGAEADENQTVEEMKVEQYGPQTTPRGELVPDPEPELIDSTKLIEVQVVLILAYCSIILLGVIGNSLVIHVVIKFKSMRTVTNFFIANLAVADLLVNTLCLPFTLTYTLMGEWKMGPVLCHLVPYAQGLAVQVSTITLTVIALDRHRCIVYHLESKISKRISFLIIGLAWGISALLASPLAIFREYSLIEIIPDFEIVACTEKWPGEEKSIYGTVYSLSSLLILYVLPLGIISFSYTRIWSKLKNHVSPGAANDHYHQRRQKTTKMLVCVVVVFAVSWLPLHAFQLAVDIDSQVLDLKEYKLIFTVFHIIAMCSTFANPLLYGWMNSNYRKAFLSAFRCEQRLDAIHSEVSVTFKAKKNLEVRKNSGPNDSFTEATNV
Experimental: (§1) Radioligand binding assays for the human and rat/mouse Y2 receptor were performed as described in Bonaventure, P., D. Nepomuceno, C. Mazur, B. Lord, D. A. Rudolph, J. A. Jablonowski, N. I. Carruthers and T. W. Lovenberg, J Pharmacol Exp Ther. 2004, 308, 1130.
(§2) KAN-Ts endogenously expressing Y2 receptors were used, for the rat and mouse Y2 receptor, membranes from rat or mouse hippocampus were prepared. Membranes were incubated with [^125I]PYY (80 pM) in the presence or absence of test compound for 1 h at rt. The reaction was stopped by filtration through GF/C filter plates pre-soaked in 0.3% polyethylenimine and subsequently washed with Tris-HCl, 50 mM, 5 mM EDTA buffer. Plates were dried for 1 h in a 55° C. oven, scintillation fluid was added and the radioactivity was counted in a Packard TopCount. Specific binding to the NPY receptor subtypes was determined by radioactivity that was bound in the presence of 1 μM NPY.
(§3) Apparent Ki values were calculated as K=IC50/(1+C/KD), where C is concentration of the radioligand and pKi=−log Ki. Data presented below are expressed as mean±S.E.M.

hY2 = target: T2, hY2 (Homo sapiens, UniProt P49146); test: Ca2+ mobilization assay (FLIPR) in KAN-Ts cells; type: cell-based; conditions: KANT-S cells, inhibition of PYY stimulated Ca2+ increase, read-out: hY2 pKB (converted)
T2 construct: KAN-Ts endogenously expressing Y2 receptors were used; endogenous in cells; host or cells: KAN-Ts cells stably expressing chimeric G proteins
T2 sequence (P49146 1-381): T1 sequence (P49146 1-381)
Experimental: The assay was performed using the fluorimetric imaging plate reader (FLIPR) format as described in Dautzenberg, F. M., Biochemical Pharmacology 2005, 69, 1493.
KAN-Ts cells stably expressing chimeric G proteins were seeded at a density of 100,000 cells into poly-d-lysine coated 384-well blackwall, clear-bottom microtiter plates (Corning, N.Y.). One day later, the medium was removed and 50 μl loading medium DMEM high glucose, without serum, supplemented with 10 mM HEPES-acid, 0.1% BSA, 5 mM probenecid and 2 μM Fluo-3AM was added. Cells were loaded for 1 h at 37° C., washed twice with 50 μl assay buffer (5 mM HEPES-acid, 140 mM NaCl, 1 mM MgCl2, 5 mM KCl, 10 mM glucose) and then 30 μl assay buffer was added. Cells were further pre-incubated at room temperature before adding agonists or agonists plus antagonists in 20 μl assay buffer and then measured on a T-channel fluorometric imaging plate reader (FLIPR, Molecular Devices, Sunnyvale, Calif.).
Antagonistic potency values were converted to apparent pKB values using a modified Cheng-Prusoff correction. Apparent pKB=−log IC50/1+[conc agonist/EC50]. Data below are expressed as mean±S.E.M.
The in vitro antagonistic properties of the compound of formula (A) were confirmed using Ca^2+ measurement.

rat Y2 receptor = target: T3, rat Y2 receptor (Rattus norvegicus, UniProt Q9ERC0); test: Neuropeptide Y2 radioligand binding assay, [125I]PYY, rat hippocampus membranes; conditions: read-out: rY2 pKi (converted)
T3 construct: membranes from rat or mouse hippocampus were prepared; from tissue; host or cells: rat hippocampus membranes
T3 sequence (Q9ERC0 1-381): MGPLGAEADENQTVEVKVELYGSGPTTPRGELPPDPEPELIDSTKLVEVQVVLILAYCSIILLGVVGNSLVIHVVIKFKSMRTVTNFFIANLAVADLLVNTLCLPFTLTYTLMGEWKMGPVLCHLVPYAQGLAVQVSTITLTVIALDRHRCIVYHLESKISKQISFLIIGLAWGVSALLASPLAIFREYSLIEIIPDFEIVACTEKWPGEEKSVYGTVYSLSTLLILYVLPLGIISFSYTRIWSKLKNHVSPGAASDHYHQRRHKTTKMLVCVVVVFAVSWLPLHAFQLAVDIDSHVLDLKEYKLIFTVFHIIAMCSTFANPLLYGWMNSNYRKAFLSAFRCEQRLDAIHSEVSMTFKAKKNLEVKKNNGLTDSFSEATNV
Experimental: as §1, §2, §3

[1] = target: T4, Y2 receptor binding sites in rat hippocampus (Rattus norvegicus, UniProt Q9ERC0); test: Ex vivo Y2 receptor occupancy in rats (autoradiography); conditions: SC administration (10 mg/kg)
T4 construct: from tissue; host or cells: rat brain sections (hippocampus) after in vivo dosing
T4 sequence (Q9ERC0 1-381): T3 sequence (Q9ERC0 1-381)
Experimental: The pharmacokinetic, blood-brain barrier penetration and ex vivo receptor occupancy studies were performed as described in Bonaventure, P., D. Nepomuceno, C. Mazur, B. Lord, D. A. Rudolph, J. A. Jablonowski, N. I. Carruthers and T. W. Lovenberg, J Pharmacol Exp Ther. 2004, 308, 1130.
The compound of formula (A) was formulated in 20% hydroxypropylbetacyclodextrine. Subcutaneous (SC), oral (PO) or intravenous (IV) dosing was followed by blood sampling via cardiac puncture over a time course. Blood samples consisted of 250 μl samples taken from the heart using a 23-gauge needle into 1.5 ml micro-centrifuge tubes. Brains were removed from the animals and bisected down the midsagittal plane. One hemisphere was frozen on dry ice for ex vivo receptor binding autoradiography and the other was homogenized for LC/MS-MS analysis.
Ex vivo receptor binding autoradiography was performed on brain sections. Twenty-micron-thick coronal sections at the level of the […] regions were collected and incubated for 10 min with 100 pM [^125I]PYY in Krebs-Ringer phosphate buffer (KRP) at pH 7.4 supplemented with 0.1% BSA, 0.05% bacitracin, and 1 μM BIBP-3226 for Y1 receptor occlusion. The sections were not washed prior to incubation and were incubated 10 minutes to avoid dissociation. Nonspecific binding was determined using adjacent sections incubated in the presence of 1 μM unlabelled hNPY. At the end of the incubation, sections were washed 4 times (4 minutes each) in ice cold buffer, dipped in deionized water and rapidly dried under a stream of cold air. Sections were exposed to a Fujifilm Imaging Plate (BAS-MS2025) for 12 hours. The Phosphor Imaging Plate was scanned using a Fuji Bio-Imaging Analyzer System (BAS-5000). The digitized computer images generated by the scanner were visualized and quantified using ImageGauge V3.12 software (Fujifilm).

mouse Y2 receptor = target: T5, mouse Y2 receptor (Mus musculus, UniProt P97295); test: Neuropeptide Y2 radioligand binding assay, [125I]PYY, mouse hippocampus membranes; conditions: read-out: mY2 pKi (converted)
T5 construct: membranes from rat or mouse hippocampus were prepared; from tissue; host or cells: mouse hippocampus membranes
T5 sequence (P97295 1-381): T3 sequence (Q9ERC0 1-381) with L4V, L20P, S23P, P25H, V52I, Q163R, V175I, K247R, T266M, L371P
Experimental: as §1, §2, §3

MTP, sequence (P55157 19-894, species assumed): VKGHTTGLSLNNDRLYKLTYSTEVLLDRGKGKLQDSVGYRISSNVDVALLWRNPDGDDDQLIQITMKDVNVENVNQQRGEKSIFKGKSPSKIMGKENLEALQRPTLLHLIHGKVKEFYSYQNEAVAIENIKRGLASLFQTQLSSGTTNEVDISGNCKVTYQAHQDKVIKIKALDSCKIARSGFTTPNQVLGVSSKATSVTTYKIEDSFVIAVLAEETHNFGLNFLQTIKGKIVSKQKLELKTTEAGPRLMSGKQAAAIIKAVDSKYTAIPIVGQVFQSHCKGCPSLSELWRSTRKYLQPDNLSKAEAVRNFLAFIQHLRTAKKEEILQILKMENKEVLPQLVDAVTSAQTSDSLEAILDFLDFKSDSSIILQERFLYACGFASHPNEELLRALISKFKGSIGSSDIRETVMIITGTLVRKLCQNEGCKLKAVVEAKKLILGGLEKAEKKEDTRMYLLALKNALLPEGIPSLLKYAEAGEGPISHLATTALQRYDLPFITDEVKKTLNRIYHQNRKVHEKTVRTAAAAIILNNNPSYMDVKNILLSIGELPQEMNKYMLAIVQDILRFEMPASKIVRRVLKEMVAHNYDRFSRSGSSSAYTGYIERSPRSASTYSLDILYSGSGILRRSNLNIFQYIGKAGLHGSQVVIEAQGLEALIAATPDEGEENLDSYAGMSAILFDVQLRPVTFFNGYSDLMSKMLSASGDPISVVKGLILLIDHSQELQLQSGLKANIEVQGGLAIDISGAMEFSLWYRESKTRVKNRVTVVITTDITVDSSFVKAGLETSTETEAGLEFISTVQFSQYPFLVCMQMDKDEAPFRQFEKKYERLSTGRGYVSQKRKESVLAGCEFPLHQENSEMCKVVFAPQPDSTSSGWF
MTP, sequence (P07237 18-508 partner, species assumed): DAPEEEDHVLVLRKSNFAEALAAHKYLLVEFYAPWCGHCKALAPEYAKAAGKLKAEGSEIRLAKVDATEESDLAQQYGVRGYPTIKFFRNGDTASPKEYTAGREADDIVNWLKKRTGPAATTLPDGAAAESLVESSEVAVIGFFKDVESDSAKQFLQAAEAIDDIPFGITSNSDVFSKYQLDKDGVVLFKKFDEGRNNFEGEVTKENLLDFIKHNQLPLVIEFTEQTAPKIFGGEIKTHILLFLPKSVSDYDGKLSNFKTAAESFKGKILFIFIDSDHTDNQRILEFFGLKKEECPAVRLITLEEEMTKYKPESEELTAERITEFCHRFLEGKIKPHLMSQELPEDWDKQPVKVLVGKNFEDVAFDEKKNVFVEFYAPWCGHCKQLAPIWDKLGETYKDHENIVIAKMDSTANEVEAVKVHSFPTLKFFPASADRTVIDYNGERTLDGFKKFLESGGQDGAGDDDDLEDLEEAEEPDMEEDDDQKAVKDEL

| Structure (SMILES) | IC50 (MTP) [nM] | Ki (human Y2 receptor) [nM] | Kb (hY2) [nM] | Ki (rat Y2 receptor) [nM] | receptor occupancy at 10 mg/kg ([1]; rat, read-out: Y2 receptor occupancy in rat brain) [%] | Ki (mouse Y2 receptor) [nM] | Y2 receptor occupancy in rat brain [1] |
| --- | --- | --- | --- | --- | --- | --- | --- |
| CCN(CC)C(=O)C(c1ccccc1)N1CCN(c2ccc(NC(=O)c3ccccc3-c3cccnc3)cc2F)CC1 (single isomer, unassigned; (+)) [(+)-Cmpd (A), N-{4-[4-(Diethylcarbamoyl-phenyl-methyl)-piperazin-1-yl]-3-fluoro-phenyl}-2-pyridin-3-yl-benzamide] | 316 | 7.94 | 0.398 | 10 | – | – | – |
| CCNC(=O)C(c1ccccc1)N1CCN(c2ccc(NC(=O)c3ccccc3-c3cccnc3)cc2F)CC1 (single isomer, unassigned; (-)) [(−)-Cmpd (B), N-{4-[4-(ethylcarbamoyl-phenyl-methyl)-piperazin-1-yl]-3-fluoro-phenyl}-2-pyridin-3-yl-benzamide] | 398 | 39.8 | – | – | – | – | – |
| CCNC(=O)C(c1ccccc1)N1CCN(c2ccc(NC(=O)c3ccccc3-c3cccnc3)cc2F)CC1 (racemic) [Cmpd (B), N-{4-[4-(ethylcarbamoyl-phenyl-methyl)-piperazin-1-yl]-3-fluorophenyl}-2-pyridin-3-yl-benzamide] | 251 | 32.4 | 50.1 | – | ~40 | – | – |
| CCN(CC)C(=O)C(c1ccccc1)N1CCN(c2ccc(NC(=O)c3ccccc3-c3cccnc3)cc2F)CC1 (single isomer, unassigned; (-)) [(−)-Cmpd (A), (−)-N-{4-[4-(Diethylcarbamoyl-phenyl-methyl)-piperazin-1-yl]-3-fluoro-phenyl}-2-pyridin-3-yl-benzamide] | 6310 | 3.16 | 0.794 | 12 | – | 7.94 | – |
| CCNC(=O)C(c1ccccc1)N1CCN(c2ccc(NC(=O)c3ccccc3-c3cccnc3)cc2F)CC1 (single isomer, unassigned; (+)) [(+)-Cmpd (B), N-{4-[4-(ethylcarbamoyl-phenyl-methyl)-piperazin-1-yl]-3-fluoro-phenyl}-2-pyridin-3-yl-benzamide] | 3980 | 229 | – | – | – | – | – |
| CCN(CC)C(=O)C(c1ccccc1)N1CCN(c2ccc(NC(=O)c3ccccc3-c3ccccc3)cc2F)CC1 (stereo not shown) [Cmpd (C), Biphenyl-2-carboxylic acid {4-[4-(diethylcarbamoyl-phenyl-methyl)-piperazin-1-yl]-3-fluoro-phenyl}-amide] | 50.1 | 7.59 | 6.31 | 25.1 | – | – | did not show any significant level of Y2 receptor occupancy |
